Experimental data published in paper PMC3723128 (Journal of medicinal chemistry, 2013).

Assays:
Assay type in all cases: biochemical
recombinant pjDHFR = recombinant pjDHFR (Pneumocystis jirovecii, UniProt Q9UUP5); assay: Inhibition of recombinant pjDHFR
recombinant hDHFR = molecular target: T1, recombinant hDHFR (Homo sapiens, UniProt P00374); assay: Inhibition of recombinant hDHFR; conditions: compared to unsubstituted phenyl compound 4
T1 sequence (P00374 1-187): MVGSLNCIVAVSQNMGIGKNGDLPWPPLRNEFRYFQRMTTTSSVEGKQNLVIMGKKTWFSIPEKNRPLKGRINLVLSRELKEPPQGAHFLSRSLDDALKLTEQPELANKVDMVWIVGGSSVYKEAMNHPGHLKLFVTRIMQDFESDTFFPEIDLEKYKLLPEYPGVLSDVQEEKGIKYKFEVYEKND

maDHFR = molecular target: T2, maDHFR (Mycobacterium avium, UniProt O30463); assay: Inhibition of maDHFR
T2 sequence (O30463 1-181): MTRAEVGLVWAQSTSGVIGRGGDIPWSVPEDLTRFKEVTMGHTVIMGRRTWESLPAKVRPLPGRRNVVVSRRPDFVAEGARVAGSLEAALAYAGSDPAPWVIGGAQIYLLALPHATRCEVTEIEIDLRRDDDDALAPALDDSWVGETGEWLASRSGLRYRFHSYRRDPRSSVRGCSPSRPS

Question: With COc1cc(Nc2cnc3nc(N)nc(N)c3c2)cc(OC)c1OC [Compound 8, N^6-(3,4,5-trimethoxyphenyl)pyrido[2,3-d]pyrimidine-2,4,6-triamine] as the compound, how does the h/pj selectivity ratio (recombinant pjDHFR; IC50 hDHFR / IC50 pjDHFR) read?
Answer: The h/pj selectivity ratio was 12.7.

Question: How did the “fold loss in potency against hDHFR” value (recombinant hDHFR) turn out when Nc1nc(N)c2cc(Nc3ccc4ccccc4c3)cnc2n1 [Compound 11, N^6-2-naphthylpyrido[2,3-d]pyrimidine-2,4,6-triamine] was run?
Answer: The value was 10 fold.

Question: How did the “fold loss in potency against hDHFR” value (recombinant hDHFR) turn out when Nc1nc(N)c2cc(Nc3cccc4ccccc34)cnc2n1 [Compound 13, N^6-1-naphthylpyrido[2,3-d]pyrimidine-2,4,6-triamine] was run?
Answer: The value was 10 fold.

Question: For CN(c1ccccc1)c1cnc2nc(N)nc(N)c2c1 [Compound 16, N^6-methyl-N^6-phenylpyrido[2,3-d]pyrimidine-2,4,6-triamine], which “fold more potent than TMP against pjDHFR” value (recombinant pjDHFR) is on record?
Answer: Its value is “about 50 fold”.

Question: COc1cc(N(C)c2cnc3nc(N)nc(N)c3c2)cc(OC)c1OC [Compound 20, N^6-methyl-N^6-(3,4,5-trimethoxyphenyl)pyrido[2,3-d]pyrimidine-2,4,6-triamine] was tested. Which “inhibitory potency against maDHFR” value (maDHFR) did it give?
Answer: The value was “subnanomolar”.

Question: Which rl/ma selectivity ratio (maDHFR; IC50 rlDHFR / IC50 maDHFR) does the source give for CN(c1cnc2nc(N)nc(N)c2c1)c1cccc2ccccc12 [Compound 24, N^6-methyl-N^6-1-naphthylpyrido[2,3-d]pyrimidine-2,4,6-triamine] here?
Answer: The rl/ma selectivity ratio was 10.3.

Question: Which results are given for CN(c1cc(F)c(F)c(F)c1)c1cnc2nc(N)nc(N)c2c1 [Compound 26, N^6-methyl-N^6-(3,4,5-trifluorophenyl)pyrido[2,3-d]pyrimidine-2,4,6-triamine]?
Answer: fold more selective for pjDHFR than PTX (recombinant pjDHFR): 18 fold; fold difference in potency for pjDHFR made by the N9-Me moiety (recombinant pjDHFR; pairs 16/4 and 26/15, from IC50 values in Table 5): ~200 fold
